Laboratory results: patent US6544727B1, “Methods and devices for the removal of psoralens from blood products” (Cerus Corporation, priority 1995, dated 2003)
Entries after “also recorded” stand apart in the source; their conditions may differ. Read-outs that look alike come from different tables or passages of the source.

How the values were obtained:
[1] = tested on: Duck Hepatitis B Virus (DHBV); experiment: Inactivation of Duck Hepatitis B Virus in platelet concentrate, read by PCR amplification; type: biochemical; details: 5 J/cm^2 UVA
Protocol: DHBV in duck yolk was added to platelet concentrate (PC) to a final concentration of 2×10^7 particles per mL and mixed by gentle rocking for ≧15 min. […] Samples, including controls without added psoralen, were irradiated with 5 J/cm^2 UVA, with mixing at 1 J/cm^2 increments. After irradiation, leukocytes and platelets were separated from virus by centrifugation. The supernatant containing DHBV was digested overnight with 50 μg/mL proteinase K in a buffer containing 0.5% sodium dodecyl sulphate, 20 mM Tris buffer, pH 8.0, and 5 mM EDTA at 55° C. Samples were extracted with phenol-chloroform and chloroform, followed by ethanol precipitation. Purified DNA was then used in PCR amplification reactions with a starting input of 10^6 DHBV genomes from each sample. […] The amplification was followed by a 7 min incubation at 72° C. to yield full length products. [[…]-^32P] dCTP was added at an amount of […] in order to detect and quantify the resulting products. Products were separated by electrophoresis on denaturing polyacrylamide slab gels and counted. The absence of signal in a given reaction was taken to indicate effective inactivation of DHBV.

[2] = tested on: platelets; experiment: Partitioning of S-59 in platelet concentrate before and after UVA illumination; type: in vitro ADME; details: % of the original S-59, after UVA
Text: During the UVA illumination process, S-59 undergoes a photochemical reaction to form several low molecular weight photoproducts in addition to associating with macromolecules in both the platelet and the plasma fractions. […] This fraction of low molecular weight photoproducts is removed during the scrub process, and their removal can be monitored both by HPLC and by radioactivity measurement using ^3H-labeled S-59.
The S-59 which is not amenable to removal by the scrub/capture process can also be monitored using ^3H-labeled S-59.

[3] = tested on: H9 cells chronically infected with HIVIIIB; experiment: Inactivation of cell-associated HIV in platelet concentrate, HIV microplaque assay; type: cell-based; details: for log inactivation of HIV, dark control: 150 μM psoralen, no UVA; for logs of HIV inactivated: 150 μM, 3 Joules/cm^2, cell-associated HIV in platelet concentrate
Protocol: H9 cells chronically infected with HIVIIIB were used. (H9/HTLV-III-B NIH 1983 Cat.#400). Cultures of these cells were maintained in high glucose Dulbecco Modified Eagle Medium supplemented with 2 mM L-glutamine, 200 u/mL penicillin, 200 μg/ml streptomycin, and 9% fetal bovine serum (Intergen Company, Purchase, N.Y.) For maintenance, the culture was split once a week, to a density of 3×10^5 to 4×10^5 cells/ml and about four days after splitting, 3.3% sodium bicarbonate was added as needed. For the inactivation procedure, the cells were used three days after they were split. They were pelleted from their culture medium at 400 g×10 minutes, the supernatant was discarded, and the cells were resuspended in one to five day old human platelet concentrate (PC) (pH 7.5-6.5), to a concentration of 2×10^6 cells/ml. Aliquots of the PC-infected cell suspension were made for psoralen free dark controls, for psoralen free UVA only controls, for psoralen dark controls, and for the psoralen plus UVA experimental sample. Concentrated filter-sterilized stock solutions of each psoralen in water were diluted into the appropriate aliquots to yield a final concentration of 150 μM. […] After an equilibration period of thirty minutes at room temperature, 0.5 ml of each of the dark controls was placed in a cryovial and stored in the dark at −80° C. For UVA illumination, 8 ml of the psoralen free aliquot and 8 ml of each psoralen containing aliquot were introduced into a modified Fl 20 Teflon™ bag (modified to be 92 cm^2 total surface area, The West Co., Phoenixvill, Pa.) via a plastic disposable 10 ml syringe attached to one of the polypropylne ports on the bag. This gave an average path length of 0.17 cm. The bags were then illuminated for a total exposure of 3 Joules/cm^2 in the device described in Example 1, above, attached to a circulating refrigerating water bath set at 4° C., which maintains the temperature in the bag at approximately 22-25° C. During exposure, the device was shaken on a platelet shaker (Helmer Labs, Noblesville, Ind.). After exposure, the contents of the bags were withdrawn by a fresh syringe through the remaining unused port on the bag, and placed in cryovials for storage in the dark at −80° C. until analysis.
The stored samples were thawed at 37° C., then titrated in an HIV microplaque assay, as described in Hanson, C. […] Clot removal from each sample was performed before plating.

[4] = tested on: Salmonella tester strain TA1538
Protocol: In this example the compounds of the present invention are tested for their dark mutagenicity using an Ames assay. The procedures used for the Salmonella mutagenicity test as described in detail by Maron and Ames were followed exactly. Maron, D. M. and B. N. Ames, Mutation Research 113: 173 ( 1983). A brief description for each procedure is given here. The tester strains TA97a, TA98, TA100, TA102, TA1537 and TA1538 were obtained from Dr. Ames. TA97a, TA98, TA1537 and TA1538 are frameshift tester strains. TA100 and TA102 are base-substitution tester strains. Upon receipt each strain was cultured under a variety of conditions to confirm the genotypes specific to the strains.
The first tests done with the strains were to determine the range of spontaneous reversion for each of the strains. With each mutagenicity experiment the spontaneous reversion of the tester strains to histidine independence was measured and expressed as the number of spontaneous revertants per plate. This served as the background controls.
For all experiments, the pre-incubation procedure was used. In this procedure one vial of each tester strain was thawed and 20 μL of this culture was added to 6 mL of Oxoid Nutrient Broth #2. This solution was allowed to shake for 10 hours at 37° C. In the pre-incubation procedure, 0.1 mL of this overnight culture was added to each of the required number of sterile test tubes. To half of the tubes 0.5 mL of a 10% S-9 solution containing Aroclor 1254 induced rat liver extract (Molecular Toxicology Inc., Annapolis, Md.), and MgCl2, KCl, glucose-6-phosphate, NADP, and sodium phosphate buffer (Sigma, St. Louis, Mo.) were added. To the other half of the tubes 0.5 mL of 0.2M sodium phospate buffer, pH 7.4, was used in place of the S-9 mixture (the—S9samples). Finally 0.1 mL of the test solution containing either 0, 0.1, 0.5, 1, 5, 10, 50, 100, 250, or 500 μg/mL of the test compound was added. The 0.7 mL mixture was vortexed and then pre-incubated while shaking for 20 minutes at 37° C. After shaking, 2 mL of molten top agar supplemented with histidine and biotin were added to the 0.7 mL mixture and immediately poured onto a minimal glucose agar plate (volume of base agar was 20 mL). The top agar was allowed 30 minutes to solidify and then the plates were inverted and incubated for 44 hours at 37° C. After incubation the number of revertant colonies on each plate were counted. […] (“n” represents the number of replicates performed for each data point.)

[5] = tested on: Chinese hamster ovary (CHO) cells; experiment: In vitro genotoxicity screen in CHO cells; details: approximately 3 hours exposure in the dark
Text: In such studies, cells are exposed to chemicals with and/or without rat S-9 metabolic activation system (S-9) and are later examined for either cell survival (for a genotoxicity screen) or for changes in chromosome structure (for a chromosome aberration assay).
Chinese hamster ovary (CHO; ATCC CCL 61 CHO-K1, proline-requiring) cells were used for the in vitro genotoxicity and chromosomal aberration tests. CHO cells are used extensively for cytogenic testing because they have a relatively low number of chromosomes (2n=20) and a rapid rate of multiplication (˜12 to 14 hours, depending on culture conditions). The cells were grown in an atmosphere of 5% CO2 at approximately 37° C. in McCoy's 5a medium with 15% fetal bovine serum (FBS), 2 mM L-glutamine, and 1% penicillin-streptomycin solution to maintain exponential growth. This medium was also used during exposure of the cells to the test compound when no S-9 was used. Cell cultures were maintained and cell exposures were performed in T-75 or T-25 flasks.
Each of the sample compounds were tested at seven dilutions, 1, 3, 10, 33, 100, 333, and 1000 μg/ml. […]
After approximately 2.5 hours in colchicine, the cells were harvested. […] The cell density and metaphase quality on the initial slide from each flask was monitored using a phase-contrast microscope; at least two slides of appropriate cell density were prepared from each flask. […]

[6] = tested on: platelets; experiment: Platelet count, Sysmex cell counter; type: cell-based, human; details: 100 μM compound, 5 Joules/cm^2, Day 5; FIGS. 21A-24A
Protocol: Samples were diluted 1:3 in blood bank saline.

[7] = tested on: DNA; details: Isaacs et al., NCI Monograph 66:21 (1984); cited from earlier work

Cc1oc2c(C)c3oc(=O)cc(C)c3cc2c1COCCN [Compound 2, 4′-(4-amino-2-oxa)butyl-4,5′,8-trimethylpsoralen]
PCR of the 1072 bp DHBV amplicon ([1]; all concentrations (35, 70, and 100 mM as printed), platelet concentrate): complete inhibition of PCR | PCR of the smaller DHBV amplicons (127 bp, 327 bp) compared with AMT ([1]; same concentrations): inhibited PCR of the smaller amplicons better than did AMT | photo-reaction products of S-59 [2]: 40-50% | log inactivation of HIV, dark control [3]: 0 logs | logs of HIV inactivated [3]: > 6.7 logs | revertant colonies per plate ([4]; TA1538 + S9, 5 μg/plate): 2 | revertant colonies per plate ([4]; TA1538 + S9, 10 μg/plate): 4 | revertant colonies per plate ([4]; TA1538 − S9, 5 μg/plate): −8 | revertant colonies per plate ([4]; TA1538 − S9, 10 μg/plate): −13

Cc1oc2c(C)c3oc(=O)cc(C)c3cc2c1CNCCCCN [Compound 6, 4′-(6-amino-2-aza)hexyl-4,5′,8-trimethylpsoralen]
concentration at which the compound was genotoxic (toxic dose) [5]: 100 µg/mL | platelet count, treated against controls (in words) [6]: higher platelet count than samples treated with light alone; also recorded: counts equivalent to the 5 day control | revertant colonies per plate ([4]; TA1538 + S9, 50 μg/plate): 24 | revertant colonies per plate ([4]; TA1538 + S9, 100 μg/plate): −2 | revertant colonies per plate ([4]; TA1538 + S9, 250 μg/plate): −38 | revertant colonies per plate ([4]; TA1538 − S9, 50 μg/plate): 2 | revertant colonies per plate ([4]; TA1538 − S9, 100 μg/plate): −18

Cc1cc(=O)oc2c(C)c3oc(COCCN)c(C)c3cc12 [Compound 18, 5′-(4-amino-2-oxa)butyl-4,4′,8-trimethylpsoralen]
platelet count, treated against controls (in words) [6]: higher platelet count than samples treated with light alone | log inactivation of HIV, dark control [3]: 0 logs | logs of HIV inactivated [3]: > 7.2 logs

Cc1oc2c(C)c3oc(=O)cc(C)c3cc2c1CN [AMT, 4′-Aminomethyl-4,5′,8-trimethylpsoralen, reference compound]
concentration at which the compound was genotoxic (toxic dose) [5]: 30 µg/mL | PCR of the 1072 bp DHBV amplicon ([1]; 35 mM final concentration (so in the source)): a signal could be detected | PCR of the 1072 bp DHBV amplicon ([1]; 70 and 100 mM levels (so in the source)): inhibited PCR amplification | DNA base pairs per AMT adduct (up to 1 adduct per) [7]: 3.5 DNA base pairs
